Patent US9708259B2 (Hoffmann-La Roche Inc., priority 2013, dated 2017)
Where a chain is given by its changes, count along the chain named. Like-named read-outs stand apart in the source and are kept apart here.

Experiments:
ratM1 = target: T1, ratM1 (Rattus norvegicus, UniProt P08482); assay: M1 PAM assay (FLIPR intracellular calcium), rat M1; assay type: cell-based
T1 construct: expressed in transfected cells; host or cells: CHO cells (stated generally for the assay, not specifically for rat M1)
T1 sequence (P08482 1-460): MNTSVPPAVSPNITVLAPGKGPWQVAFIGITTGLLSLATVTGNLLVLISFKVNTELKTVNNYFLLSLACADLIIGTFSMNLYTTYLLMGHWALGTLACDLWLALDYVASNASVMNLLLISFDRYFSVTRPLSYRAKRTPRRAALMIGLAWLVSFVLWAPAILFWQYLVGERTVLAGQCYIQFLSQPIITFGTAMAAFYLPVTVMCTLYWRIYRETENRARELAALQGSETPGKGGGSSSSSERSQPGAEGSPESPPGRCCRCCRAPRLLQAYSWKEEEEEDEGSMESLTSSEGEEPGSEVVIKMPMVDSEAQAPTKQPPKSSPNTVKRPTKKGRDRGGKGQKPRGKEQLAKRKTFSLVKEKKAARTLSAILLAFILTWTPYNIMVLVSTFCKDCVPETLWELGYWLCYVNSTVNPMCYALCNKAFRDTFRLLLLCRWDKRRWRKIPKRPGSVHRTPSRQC

human M1 = target: T2, human M1 (Homo sapiens, UniProt P11229); assay: M1 PAM assay (FLIPR intracellular calcium), human M1; assay type: cell-based
T2 construct: expressed in transfected cells; host or cells: CHO cells
T2 sequence (P11229 1-460): T1 sequence (P08482 1-460) with V5A, S254T, S309P, K320R, G337A, V413I
Summary of the method: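 CHO cells expressing M1, Fluo-4AM-loaded, in HEPES/probenecid HBSS pH 7.4, 1% DMSO final. Compounds pre-incubated 2 min for agonist activity versus 30 nM acetylcholine control. For PAM activity, acetylcholine EC20 added after the 2 min pre-incubation, then 2 min more before FLIPR intracellular Ca2+ read.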

[1] = rat M1, FLIPR Ca2+, second value of the cell, read-out: ratM1 EC50
[2] = CHO human M1 cells, FLIPR Ca2+, with EC20 of acetylcholine, first value of the cell, read-out: hM1 EC50

SMILES: O=C(N[C@H]1CCCC[C@@H]1O)c1cn(Cc2ccc(-c3ccccc3)nc2)c2cccc(F)c12 [Example 131, 4-fluoro-N-((1S,2S)-2-hydroxycyclohexyl)-1-((6-phenylpyridin-3-yl)methyl)-1H-indole-3-carboxamide]
- EC50 (ratM1; [1]): 152 nM
- EC50 (human M1; [2]): 36 nM

SMILES: CNC(=O)c1ccc(Cn2cc(C(=O)NC3CCOCC3)c3c(F)cccc32)cc1 [Example 132, 4-fluoro-1-(4-(methylcarbamoyl)benzyl)-N-(tetrahydro-2H-pyran-4-yl)-1H-indole-3-carboxamide]
- EC50 (ratM1; [1]): 22 nM
- EC50 (human M1; [2]): 3 nM

SMILES: Cc1ccc(F)c2c(C(=O)NC3CCOCC3)cn(Cc3ccc(-c4cnn(C)c4)cc3F)c12 [Example 133, 4-fluoro-1-(2-fluoro-4-(1-methyl-1H-pyrazol-4-yl)benzyl)-7-methyl-N-(tetrahydro-2H-pyran-4-yl)-1H-indole-3-carboxamide]
- EC50 (ratM1; [1]): 84 nM
- EC50 (human M1; [2]): 48 nM

SMILES: Cc1ccc(F)c2c(C(=O)NC3CCOCC3)cn(Cc3ccc4c(cnn4C)c3)c12 [Example 134, 4-fluoro-7-methyl-1-((1-methyl-1H-indazol-5-yl)methyl)-N-(tetrahydro-2H-pyran-4-yl)-1H-indole-3-carboxamide]
- EC50 (ratM1): 76 nM
- EC50 (human M1): 25 nM

SMILES: O=C(N[C@H]1CCCC[C@@H]1O)c1cn(Cc2ccc(-c3ncccn3)cc2)c2cccc(F)c12 [Example 135, 4-fluoro-N-((1S,2S)-2-hydroxycyclohexyl)-1-(4-(pyrimidin-2-yl)benzyl)-1H-indole-3-carboxamide]
- EC50 (ratM1; [1]): 384 nM
- EC50 (human M1; [2]): 97 nM

SMILES: O=C(N[C@H]1CCOC[C@@H]1O)c1cn(CC2CCN(c3ccccn3)CC2)c2cccc(F)c12 [Example 136, 4-fluoro-N-((3R,4S)-3-hydroxytetrahydro-2H-pyran-4-yl)-1-((1-(pyridin-2-yl)piperidin-4-yl)methyl)-1H-indole-3-carboxamide]
- EC50 (ratM1; [1]): 428 nM
- EC50 (human M1; [2]): 134 nM

SMILES: O=C(N[C@H]1CCCC[C@@H]1O)c1cn(Cc2ccc(-c3cnco3)cc2)c2cccc(F)c12 [Example 137, 4-fluoro-N-((1S,2S)-2-hydroxycyclohexyl)-1-(4-(oxazol-5-yl)benzyl)-1H-indole-3-carboxamide]
- EC50 (ratM1; [1]): 34 nM
- EC50 (human M1; [2]): 9 nM

SMILES: O=C(N[C@H]1CCCC[C@@H]1O)c1cn(Cc2ccc(-c3ccno3)cc2)c2cccc(F)c12 [Example 138, 4-fluoro-N-((1S,2S)-2-hydroxycyclohexyl)-1-(4-(isoxazol-5-yl)benzyl)-1H-indole-3-carboxamide]
- EC50 (ratM1; [1]): 38 nM
- EC50 (human M1; [2]): 16 nM

SMILES: O=C(N[C@H]1CCCC[C@@H]1O)c1cn(Cc2cnc(-c3ccccc3)nc2)c2cccc(F)c12 [Example 139, 4-fluoro-N-((1S,2S)-2-hydroxycyclohexyl)-1-((2-phenylpyrimidin-5-yl)methyl)-1H-indole-3-carboxamide]
- EC50 (ratM1; [1]): 2630 nM
- EC50 (human M1; [2]): 423 nM

SMILES: O=C(N[C@H]1CCCC[C@@H]1O)c1cn(Cc2ccc(-c3ccccc3)cn2)c2cccc(F)c12 [Example 140]
- EC50 (ratM1; [1]): 518 nM
- EC50 (human M1; [2]): 103 nM

SMILES: O=C(N[C@H]1CCCC[C@@H]1O)c1cn(Cc2ccc(-c3nccs3)cn2)c2cccc(F)c12 [Example 141, 4-fluoro-N-((1S,2S)-2-hydroxycyclohexyl)-1-((5-(thiazol-2-yl)pyridin-2-yl)methyl)-1H-indole-3-carboxamide]
- EC50 (ratM1; [1]): 453 nM
- EC50 (human M1; [2]): 155 nM

SMILES: O=C(N[C@H]1CCCC[C@@H]1O)c1cn(Cc2ccc(-n3ccnc3)nc2)c2cccc(F)c12 [Example 142, 1-((6-(1H-imidazol-1-yl)pyridin-3-yl)methyl)-4-fluoro-N-((1S,2S)-2-hydroxycyclohexyl)-1H-indole-3-carboxamide]
- EC50 (ratM1; [1]): 210 nM
- EC50 (human M1; [2]): 75 nM

SMILES: O=C(N[C@H]1CCCC[C@@H]1O)c1cn(CC2CCN(c3ccncn3)CC2)c2cccc(F)c12 [Example 143, 4-fluoro-N-((1S,2S)-2-hydroxycyclohexyl)-1-((1-(pyrimidin-4-yl)piperidin-4-yl)methyl)-1H-indole-3-carboxamide]
- EC50 (ratM1; [1]): 1070 nM
- EC50 (human M1; [2]): 409 nM

SMILES: O=C(N[C@H]1CCCC[C@@H]1O)c1cn(Cc2ccn3ccnc3c2)c2cccc(F)c12 [Example 144, 4-fluoro-N-((1S,2S)-2-hydroxycyclohexyl)-1-(imidazo[1,2-a]pyridin-7-ylmethyl)-1H-indole-3-carboxamide]
- EC50 (ratM1): 172 nM
- EC50 (human M1): 70 nM

SMILES: O=C(N[C@H]1CCCC[C@@H]1O)c1cn(Cc2ccc3nccn3c2)c2cccc(F)c12 [Example 145, 4-fluoro-N-((1S,2S)-2-hydroxycyclohexyl)-1-(imidazo[1,2-a]pyridin-6-ylmethyl)-1H-indole-3-carboxamide]
- EC50 (ratM1): 36 nM
- EC50 (human M1): 17 nM

SMILES: O=C(NC1CC1)c1ccc(Cn2cc(C(=O)N[C@H]3CCCC[C@@H]3O)c3c(F)cccc32)cc1 [Example 146, 1-(4-(cyclopropylcarbamoyl)benzyl)-4-fluoro-N-((1S,2S)-2-hydroxycyclohexyl)-1H-indole-3-carboxamide]
- EC50 (ratM1; [1]): 5 nM
- EC50 (human M1; [2]): 2 nM

SMILES: CNC(=O)c1ccc(Cn2cc(C(=O)NC3CCOCC3)c3c(F)cccc32)cn1 [Example 147, 4-fluoro-1-((6-(methylcarbamoyl)pyridin-3-yl)methyl)-N-(tetrahydro-2H-pyran-4-yl)-1H-indole-3-carboxamide]
- EC50 (ratM1; [1]): 323 nM
- EC50 (human M1; [2]): 197 nM

SMILES: COc1ccc(F)c2c(C(=O)N[C@H]3CCCC[C@@H]3O)cn(Cc3ccc(-c4cnn(C)c4)cc3)c12 [Example 148, 4-fluoro-N-((1S,2S)-2-hydroxycyclohexyl)-7-methoxy-1-(4-(1-methyl-1H-pyrazol-4-yl)benzyl)-1H-indole-3-carboxamide]
- EC50 (ratM1; [1]): 139 nM
- EC50 (human M1; [2]): 84 nM

SMILES: COc1ccc(F)c2c(C(=O)N[C@H]3CCCC[C@@H]3O)cn(Cc3ccc(-c4cnn(C)c4)cc3F)c12 [Example 149, 4-fluoro-1-(2-fluoro-4-(1-methyl-1H-pyrazol-4-yl)benzyl)-N-((1S,2S)-2-hydroxycyclohexyl)-7-methoxy-1H-indole-3-carboxamide]
- EC50 (ratM1; [1]): 348 nM
- EC50 (human M1; [2]): 438 nM

SMILES: COc1ccc(F)c2c(C(=O)N[C@H]3CCOC[C@@H]3O)cn(Cc3ccc(-c4cnn(C)c4)cc3)c12 [Example 150, 4-fluoro-N-((3R,4S)-3-hydroxytetrahydro-2H-pyran-4-yl)-7-methoxy-1-(4-(1-methyl-1H-pyrazol-4-yl)benzyl)-1H-indole-3-carboxamide]
- EC50 (ratM1; [1]): 34 nM
- EC50 (human M1; [2]): 50 nM

SMILES: COc1ccc(F)c2c(C(=O)NC3CCOCC3)cn(Cc3ccc(-c4cnn(C)c4)cc3)c12 [Example 151, 4-fluoro-7-methoxy-1-(4-(1-methyl-1H-pyrazol-4-yl)benzyl)-N-(tetrahydro-2H-pyran-4-yl)-1H-indole-3-carboxamide]
- EC50 (ratM1; [1]): 299 nM
- EC50 (human M1; [2]): 194 nM

SMILES: COc1ccc(F)c2c(C(=O)NC3CCOCC3)cn(Cc3ccc(-c4cnn(C)c4)cc3F)c12 [Example 152, 4-fluoro-1-(2-fluoro-4-(1-methyl-1H-pyrazol-4-yl)benzyl)-7-methoxy-N-(tetrahydro-2H-pyran-4-yl)-1H-indole-3-carboxamide]
- EC50 (ratM1; [1]): 609 nM
- EC50 (human M1; [2]): 260 nM

SMILES: COc1ccc(F)c2c(C(=O)N[C@H]3CCOC[C@@H]3O)cn(Cc3ccc(-c4cnn(C)c4)cc3F)c12 [Example 153, 4-fluoro-1-(2-fluoro-4-(1-methyl-1H-pyrazol-4-yl)benzyl)-N-((3R,4S)-3-hydroxytetrahydro-2H-pyran-4-yl)-7-methoxy-1H-indole-3-carboxamide]
- EC50 (ratM1; [1]): 56 nM
- EC50 (human M1; [2]): 56 nM
